Source: paper PMC7156458, “Synthetic biology based construction of biological activity-related library of fungal decalin-containing diterpenoid pyrones” (Nature Communications, 2020)

Target: Aβ42 (Homo sapiens, UniProt P05067)
Test: Th-T (thioflavin-T) assay of Aβ42 aggregation
Type: biochemical
Conditions: for Th-T assay plate reading, mean of three wells (Supplementary Fig. 47): source data, Ab alone and No Ab as controls

Aβ42, sequence (P05067 672-713): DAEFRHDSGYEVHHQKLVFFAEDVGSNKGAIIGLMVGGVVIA

C=C1CCC2C(C)(CCC=C(C)C)C(O)CCC2(C)C1Cc1c(OC)oc(C)c(C)c1=O (stereo not drawn) [Compound 15, viridoxin A hydrolysate]
Th-T fluorescence, mean of three wells (Aβ42 aggregation time course, reading M117): 3.35 | Th-T fluorescence, mean of three wells (Aβ42 aggregation time course, reading M118): 3.314 | Th-T fluorescence, mean of three wells (Aβ42 aggregation time course, reading M119): 3.3216 | Th-T fluorescence, mean of three wells (Aβ42 aggregation time course, reading M120): 3.354 | Th-T fluorescence, mean of three wells (Aβ42 aggregation time course, reading M121): 3.335 | Th-T fluorescence, mean of three wells (Aβ42 aggregation time course, reading M122): 3.364 | Th-T fluorescence, mean of three wells (Aβ42 aggregation time course, reading M123): 3.352 | Th-T fluorescence, mean of three wells (Aβ42 aggregation time course, reading M124): 3.339 | Th-T fluorescence, mean of three wells (Aβ42 aggregation time course, reading M125): 3.327 | Th-T fluorescence, mean of three wells (Aβ42 aggregation time course, reading M126): 3.362 | Th-T fluorescence, mean of three wells (Aβ42 aggregation time course, reading M127): 3.317 | Th-T fluorescence, mean of three wells (Aβ42 aggregation time course, reading M128): 3.323 | Th-T fluorescence, mean of three wells (Aβ42 aggregation time course, reading M129): 3.297 | Th-T fluorescence, mean of three wells (Aβ42 aggregation time course, reading M130): 3.34 | Th-T fluorescence, mean of three wells (Aβ42 aggregation time course, reading M131): 3.327 | Th-T fluorescence, mean of three wells (Aβ42 aggregation time course, reading M132): 3.341 | Th-T fluorescence, mean of three wells (Aβ42 aggregation time course, reading M133): 3.324 | Th-T fluorescence, mean of three wells (Aβ42 aggregation time course, reading M134): 3.304 | Th-T fluorescence, mean of three wells (Aβ42 aggregation time course, reading M135): 3.315 | Th-T fluorescence, mean of three wells (Aβ42 aggregation time course, reading M136): 3.347 | Th-T fluorescence, mean of three wells (Supplementary Fig. 47, reading M137): 3.349 | Th-T fluorescence, mean of three wells (Supplementary Fig. 47, reading M138): 3.365 | Th-T fluorescence, mean of three wells (Supplementary Fig. 47, reading M139): 3.354 | Th-T fluorescence, mean of three wells (Supplementary Fig. 47, reading M140): 3.356 | Th-T fluorescence, mean of three wells (Supplementary Fig. 47, reading M141): 3.3427 | Th-T fluorescence, mean of three wells (Supplementary Fig. 47, reading M142): 3.34 | Th-T fluorescence, mean of three wells (Supplementary Fig. 47, reading M143): 3.336 | Th-T fluorescence, mean of three wells (Supplementary Fig. 47, reading M144): 3.346 | Th-T fluorescence, mean of three wells (Supplementary Fig. 47, reading M145): 3.328 | Th-T assay plate reading, mean of three wells (Supplementary Fig. 47) (measurement M1): 0.2276 | Th-T assay plate reading, mean of three wells (Supplementary Fig. 47) (measurement M2): 0.2029 | Th-T assay plate reading, mean of three wells (Supplementary Fig. 47) (measurement M3): 0.2068 | Th-T assay plate reading, mean of three wells (Supplementary Fig. 47) (measurement M4): 0.2103 | Th-T assay plate reading, mean of three wells (Supplementary Fig. 47) (measurement M5): 0.2149 | Th-T assay plate reading, mean of three wells (Supplementary Fig. 47) (measurement M6): 0.2264 | Th-T assay plate reading, mean of three wells (Supplementary Fig. 47) (measurement M7): 0.2421 | Th-T assay plate reading, mean of three wells (Supplementary Fig. 47) (measurement M8): 0.3484 | Th-T assay plate reading, mean of three wells (Supplementary Fig. 47) (measurement M9): 0.4623 | Th-T assay plate reading, mean of three wells (Supplementary Fig. 47) (measurement M10): 0.8904 | Th-T assay plate reading, mean of three wells (Supplementary Fig. 47) (measurement M11): 1.43 | Th-T assay plate reading, mean of three wells (Supplementary Fig. 47) (measurement M12): 1.748 | Th-T assay plate reading, mean of three wells (Supplementary Fig. 47) (measurement M13): 1.906 | Th-T assay plate reading, mean of three wells (Supplementary Fig. 47) (measurement M14): 1.9845 | Th-T assay plate reading, mean of three wells (Supplementary Fig. 47) (measurement M15): 1.9935 | Th-T assay plate reading, mean of three wells (Supplementary Fig. 47) (measurement M16): 2.026 | Th-T fluorescence, mean of three wells (reading M17, Supplementary Fig. 47 source data): 2.072 | Th-T fluorescence, mean of three wells (time-course reading M97, Supplementary Fig. 47 source data): 3.281 | Th-T fluorescence, mean of three wells (time-course reading M98, Supplementary Fig. 47 source data): 3.314 | Th-T fluorescence, mean of three wells (time-course reading M99, Supplementary Fig. 47 source data): 3.322 | Th-T fluorescence, mean of three wells (time-course reading M100, Supplementary Fig. 47 source data): 3.3481 | Th-T fluorescence, mean of three wells (time-course reading M101, Supplementary Fig. 47 source data): 3.295 | Th-T fluorescence, mean of three wells (time-course reading M102, Supplementary Fig. 47 source data): 3.298 | Th-T fluorescence, mean of three wells (time-course reading M103, Supplementary Fig. 47 source data): 3.312 | Th-T fluorescence, mean of three wells (time-course reading M104, Supplementary Fig. 47 source data): 3.321 | Th-T fluorescence, mean of three wells (time-course reading M105, Supplementary Fig. 47 source data): 3.301 | Th-T fluorescence, mean of three wells (time-course reading M106, Supplementary Fig. 47 source data): 3.313 | Th-T fluorescence, mean of three wells (time-course reading M107, Supplementary Fig. 47 source data): 3.319 | Th-T fluorescence, mean of three wells (time-course reading M108, Supplementary Fig. 47 source data): 3.3191 | Th-T fluorescence, mean of three wells (time-course reading M109, Supplementary Fig. 47 source data): 3.3293 | Th-T fluorescence, mean of three wells (time-course reading M110, Supplementary Fig. 47 source data): 3.309 | Th-T fluorescence, mean of three wells (time-course reading M111, Supplementary Fig. 47 source data): 3.3187 | Th-T fluorescence, mean of three wells (time-course reading M112, Supplementary Fig. 47 source data): 3.343 | Th-T fluorescence, mean of three wells (time-course reading M113, Supplementary Fig. 47 source data): 3.364 | Th-T fluorescence, mean of three wells (time-course reading M114, Supplementary Fig. 47 source data): 3.378 | Th-T fluorescence, mean of three wells (time-course reading M115, Supplementary Fig. 47 source data): 3.333 | Th-T fluorescence, mean of three wells (time-course reading M116, Supplementary Fig. 47 source data): 3.348
